In patent US20240261296A1, “THERAPEUTIC MODALITIES FOR INHIBITING PANCREATIC BETA CELL IMPAIRMENT AND TREATING DIABETES” (Hadasit Medical Research Serices & Development Ltd., priority 2021, published 2024):

What was measured:
Type in all cases: cell-based, murine
[1] = tested on: MIN6 cells; test: rescue of MIN6 cells from palmitate-induced apoptosis (cleaved caspase 3 western blot; FACS SubG1); settings: palmitic acid 0.3 mM, 48 hours; compared to L-798106
Protocol: Islet and cell culture: The pancreatic β-cell line MIN6, which is a clonal murine insulin-secreting line, was cultured in DMEM (Biological Industries, Beit Haemek, Israel) supplemented with 11 mM Glucose, 2 mM glutamine, 15% heat-inactivated fetal calf serum (FCS), 100 U/ml penicillin, 100 µg/ml streptomycin and 61 μM β-mercaptoethanol. Human islets were obtained from the European Consortium for Islet Transplantation (ECIT) at the San Raffaele Hospital and from the Niguarda Hospital, (Milan, Italy) and cultured in CMRL-1066 media (Biological Industries, Beit HaEmek, Israel) supplemented with 10% FCS, 5.5 mM glucose, 2 mM L-Glutamine, 100 U/ml penicillin, 100 μg/ml streptomycin and 150 μg/ml gentamycin. Palmitate was added to 1% FCS and 0.5% defatted BSA (Roche, Germany).
Western blotting: Cells were lyzed in Laemmli protein sample buffer, separated on SDS-polyacrylamide gel, and transferred to […] nitrocellulose membranes (Schleicher and Schuell, Dassel, Germany). After blocking in 5% dried skimmed milk, the membranes were first incubated with the appropriate antibodies against: cleaved caspase-3 (Asp175) (Cell Signaling Technology Danvers, MA) and α-tubulin (Sigma-Aldrich.) and then with horseradish peroxidase conjugated anti-rabbit or anti-mouse IgG, followed by analysis with an enhanced chemiluminescence detection kit (Biological Industries, Israel).
The remaining compounds were screened for the ability to rescue β-cells from palmitate-induced apoptosis as compared to the commercial EP3 antagonist L-798106 by measuring the levels of the cleaved caspase 3 apoptotic marker, using Western Blot analysis (FIG. 1). […] Cell extracts were analyzed by western blotting for the presence of cleaved caspase 3 as compared to α-Tubulin.
The ability of the compounds to rescue β-cells from apoptosis was also evaluated using FACS analysis and measuring the SubG1 population (FIG. 2). […] Collected cells were analyzed by FACS and the SubG1 fractions (representing apoptotic cell products or components were compared. The average of 4-6 independent experiments is presented in FIG. 2.

[2] = tested on: MIN6 cells; test: Caspase 3/7 enzymatic activity in palmitic acid-treated MIN6 cells; settings: 250 nM, 24 h
Protocol: Next, the ability of the compounds to rescue human islet cells from palmitate-induced apoptosis was determined. To this end, the Caspase-Glo 3/7 assay reagent (Promega) was used for caspase 3/7 detection in palmitic acid-treated cells. The reagent provides a proluminescent caspase-3/7 substrate, which contains the tetrapeptide sequence DEVD, in combination with luciferase and a cell-lysing agent. The addition of the reagent directly to the wells results in cell lysis, followed by caspase cleavage of the DEVD substrate, and the generation of luminescence.
Following the initial screening results, compounds C13 and C5 were tested at different doses for their ability to reduce palmitate-induced apoptosis. To this end, MIN6 cells were exposed to 250 nM of the tested compounds in the presence of palmitic acid (PA) for 24 h, or to PA alone. Caspase 3/7 enzymatic activity was measured as described in Example 3, and the results, presented in FIG. 4 represent the average ±SEM of triplicates or quadruplicates.

[3] = tested on: INS1 and INS2 genes; test: insulin gene expression in palmitate-treated MIN6 cells (real-time PCR); settings: 10 μM, in the presence of palmitate
Protocol: Real-time PCR: Total RNA from MIN6 cells or islets was extracted using TRIzol (Invitrogen, Carlsbad, CA, USA) and 2 μg of total RNA was converted to cDNA using SuperScript® III Reverse Transcriptase (Invitrogen, Carlsbad, CA, USA). 2.5-5 ng cDNA was used for each real-time PCR reaction. Real-time reaction was performed using Platinum SYBR Green qPCR SuperMix-UDG with ROX reference dye (Applied Biosystems). The primers used were as follows: GAPDH forward (F): […]; GAPDH reverse (R): […]; Ins1 (F): AACCCCCAGCCCTTAGTGA; (R): […]; Ins2 (F): […]; (R): […] (SEQ ID Nos: 1-6, respectively). Additional primers used as controls are directed to HPRT, as follows: HPRT (F): […] HPRT (R) […] (SEQ ID Nos: 7-8, respectively).
PA decreases the expression of β-cell specific genes, including insulin. The effect of the selected compounds on insulin gene expression was further tested in MIN6 cells. Rodent β-cells have two insulin genes (INS1 and INS2). MIN6 cells were exposed to C5 or L-798106 (10 μM) in the presence or absence of palmitic acid, and mRNAs insulin levels were measured by real-time PCR. FIGS. 6A-6B present the expression levels of INS1 and INS2 genes, respectively, normalized to GAPDH expression levels. Data of n=3±SEM is presented.

Row | SMILES | rescue of β-cells from palmitate-induced apoptosis (cleaved caspase 3; SubG1 population) [1] | palmitate-induced apoptosis (caspase 3/7 activity) [2] | effect on insulin gene expression relative to L-798106 [3] | insulin gene expression (INS1, INS2) normalized to GAPDH [3]
1 | CC[C@H](C)c1ccc(S(=O)(=O)Nc2ccccc2C(=O)N2C[C@@H](C)O[C@@H](C)C2)cc1 [Compound C5, 4-((S)-sec-butyl)-N-(2-((2S,6R)-2,6-dimethylmorpholine-4-carbonyl)phenyl)benzenesulfonamide] | exceptionally high efficacy | significantly reduced | appeared to be more significant | enhanced insulin gene expression
2 | CC[C@@H]1CC[C@H](C)N1C(=O)c1cccc(NS(=O)(=O)c2ccc(C)c(F)c2)c1 [Compound C13, N-(3-((2R,5S)-2-ethyl-5-methylpyrrolidine-1-carbonyl)phenyl)-3-fluoro-4-methylbenzenesulfonamide] | exceptionally high efficacy | significantly reduced |  | 
3 | COc1ccc(Br)cc1S(=O)(=O)NC(=O)/C=C/c1ccccc1Cc1ccc2ccccc2c1 [Compound L-798106, (2E)-N-[(5-bromo-2-methoxyphenyl)sulfonyl]-3-[2-(2-naphthalenylmethyl)phenyl]-2-propenamide, reference compound] |  |  |  | enhanced insulin gene expression
